Measurements published in ChEMBL document CHEMBL3407372, “Photodynamic effects induced by meso-tris(pentafluorophenyl)corrole and its cyclodextrin conjugates on cytoskeletal components of HeLa cells” (Eur J Med Chem, 2015).
Active and inactive are the calls of the source. The calls are words filed in the database; no cut-off is given here.

Assays:
HeLa [1] = assay: Cytotoxicity against human HeLa cells assessed as survival fraction at 1x10'-5 M incubated 24 hrs in dark by MTT assay; assay type: functional; conditions: read-out: Survival
HeLa [2] = assay: Cytotoxicity against human HeLa cells assessed as survival fraction at 1x10'-4 M incubated 24 hrs in dark by MTT assay; assay type: functional; conditions: read-out: Survival
HeLa [3] = assay: Phototoxicity against human HeLa cells assessed as survival fraction at 1x10'-5 M incubated 24 hrs under 6 J/cm'2 red light with irradiance of 5 mW/cm'2 by MTT assay; assay type: functional; conditions: light or radiation study, read-out: Survival
HeLa [4] = assay: Phototoxicity against human HeLa cells assessed as survival fraction at 1x10'-5 M incubated 24 hrs under 9 J/cm'2 red light with irradiance of 5 mW/cm'2 by MTT assay; assay type: functional; conditions: light or radiation study, read-out: Survival
HeLa [5] = assay: Phototoxicity against human HeLa cells assessed as survival fraction at 1x10'-5 M incubated 24 hrs under 12 J/cm'2 red light with irradiance of 5 mW/cm'2 by MTT assay; assay type: functional; conditions: light or radiation study, read-out: Survival
HeLa [6] = assay: Phototoxicity against human HeLa cells assessed as survival fraction at 1x10'-4 M incubated 24 hrs under 6 J/cm'2 red light with irradiance of 5 mW/cm'2 by MTT assay; assay type: functional; conditions: light or radiation study, read-out: Survival
HeLa [7] = assay: Phototoxicity against human HeLa cells assessed as survival fraction at 1x10'-4 M incubated 24 hrs under 9 J/cm'2 red light with irradiance of 5 mW/cm'2 by MTT assay; assay type: functional; conditions: light or radiation study, read-out: Survival
HeLa [8] = assay: Phototoxicity against human HeLa cells assessed as survival fraction at 1x10'-4 M incubated 24 hrs under 12 J/cm'2 red light with irradiance of 5 mW/cm'2 by MTT assay; assay type: functional; conditions: light or radiation study, read-out: Survival
HeLa [9] = assay: Cytotoxicity against human HeLa cells assessed as survival fraction at 1x10'-7 M incubated 24 hrs in dark by MTT assay; assay type: functional; conditions: read-out: Survival
HeLa [10] = assay: Phototoxicity against human HeLa cells assessed as survival fraction at 1x10'-7 M incubated 24 hrs under 3 J/cm'2 red light with irradiance of 5 mW/cm'2 by MTT assay; assay type: functional; conditions: light or radiation study, read-out: Survival
HeLa [11] = assay: Phototoxicity against human HeLa cells assessed as survival fraction at 1x10'-7 M incubated 24 hrs under 6 J/cm'2 red light with irradiance of 5 mW/cm'2 by MTT assay; assay type: functional; conditions: light or radiation study, read-out: Survival
HeLa [12] = assay: Phototoxicity against human HeLa cells assessed as survival fraction at 1x10'-7 M incubated 24 hrs under 9 J/cm'2 red light with irradiance of 5 mW/cm'2 by MTT assay; assay type: functional; conditions: light or radiation study, read-out: Survival
HeLa [13] = assay: Phototoxicity against human HeLa cells assessed as survival fraction at 1x10'-5 M incubated 24 hrs under 3 J/cm'2 red light with irradiance of 5 mW/cm'2 by MTT assay; assay type: functional; conditions: light or radiation study, read-out: Survival
HeLa [14] = assay: Phototoxicity against human HeLa cells assessed as lethality rate at 1x10'-5 M incubated 24 hrs under 3 J/cm'2 red light with irradiance of 5 mW/cm'2 by MTT assay; assay type: functional; conditions: light or radiation study
HeLa [15] = assay: Phototoxicity against human HeLa cells assessed as lethality rate at 1x10'-5 M incubated 24 hrs under 6 J/cm'2 red light with irradiance of 5 mW/cm'2 by MTT assay; assay type: functional
HeLa [16] = assay: Drug uptake in human HeLa cells assessed as nucleus at 1x10'-5 M incubated 24 hrs by red emission under fluorescence microscopy; assay type: ADME, cell-based; conditions: 10 µM
HeLa [17] = assay: Drug uptake in human HeLa cells assessed as golgi apparatus at 1x10'-5 M incubated 24 hrs by mitotracker green; assay type: ADME, cell-based; conditions: 10 µM
HeLa [18] = assay: Phototoxicity against human HeLa cells assessed as changes in microtubular organization at LD20 concentration incubated 24 hrs under 12 J/cm'2 red light with irradiance of 5 mW/cm'2 by immunofluorescence staining; assay type: functional, cell-based
HeLa [19] = assay: Phototoxicity against human HeLa cells assessed as abnormalities in chromosome disposition in metaphase plate at LD20 concentration incubated 24 hrs under 12 J/cm'2 red light with irradiance of 5 mW/cm'2 by immunofluorescence staining; assay type: functional, cell-based
HeLa [20] = assay: Phototoxicity against human HeLa cells assessed as lethality rate at 1x10'-5 M incubated 24 hrs under 9 J/cm'2 red light with irradiance of 5 mW/cm'2 by MTT assay; assay type: functional
HeLa [21] = assay: Drug uptake in human HeLa cells assessed as located in granules at 1x10'-5 M incubated 24 hrs by red emission under fluorescence microscopy; assay type: ADME, cell-based; conditions: 10 µM
HeLa [22] = assay: Drug uptake in human HeLa cells assessed as located in cytoplasm at 1x10'-5 M incubated 24 hrs by red emission under fluorescence microscopy; assay type: ADME, cell-based; conditions: 10 µM
HeLa [23] = assay: Drug uptake in human HeLa cells assessed as lysosomes at 1x10'-5 M incubated 24 hrs by acridine orange staining; assay type: ADME, cell-based; conditions: 10 µM
HeLa [24] = assay: Drug uptake in human HeLa cells assessed as filamentous pattern of mitochondria at 1x10'-5 M incubated 24 hrs by mitotracker green; assay type: ADME, cell-based; conditions: 10 µM
HeLa [25] = assay: Drug uptake in human HeLa cells assessed as juxtanuclear portion at 1x10'-5 M incubated 24 hrs by ceramide; assay type: ADME, cell-based; conditions: 10 µM
HeLa [26] = assay: Phototoxicity against human HeLa cells assessed as changes in microtubular organization at LD70 concentration incubated 24 hrs under 12 J/cm'2 red light with irradiance of 5 mW/cm'2 by immunofluorescence staining; assay type: functional, cell-based
HeLa [27] = assay: Phototoxicity against human HeLa cells assessed as abnormalities in chromosome disposition in metaphase plate at LD70 concentration incubated 24 hrs under 12 J/cm'2 red light with irradiance of 5 mW/cm'2 by immunofluorescence staining; assay type: functional, cell-based

For OC[C@H]1O[C@@H]2O[C@H]3O[C@H](COc4c(F)c(F)c(-c5c6nc(c(-c7c(F)c(F)c(F)c(F)c7F)c7ccc([nH]7)c(-c7c(F)c(F)c(OC[C@H]8O[C@@H]9O[C@H]%10O[C@H](CO)[C@@H](O[C@H]%11O[C@H](CO)[C@@H](O[C@H]%12O[C@H](CO)[C@@H](O[C@H]%13O[C@H](CO)[C@@H](O[C@H]%14O[C@H](CO)[C@@H](O[C@H]%15O[C@H](CO)[C@@H](O[C@H]8[C@H](O)[C@H]9O)[C@H](O)[C@H]%15O)[C@H](O)[C@H]%14O)[C@H](O)[C@H]%13O)[C@@H](O)[C@H]%12O)[C@H](O)[C@H]%11O)[C@H](O)[C@H]%10O)c(F)c7F)c7ccc([nH]7)c7ccc5[nH]7)C=C6)c(F)c4F)[C@@H](O[C@H]4[C@H](O)[C@@H](O)[C@@H](O[C@H]5[C@H](O)[C@@H](O)[C@@H](O[C@H]6[C@H](O)[C@@H](O)[C@@H](O[C@H]7[C@@H](O)[C@@H](O)[C@@H](O[C@H]8[C@H](O)[C@@H](O)[C@@H](O[C@H]1[C@H](O)[C@H]2O)O[C@@H]8CO)O[C@@H]7CO)O[C@@H]6CO)O[C@@H]5CO)O[C@@H]4CO)[C@H](O)[C@H]3O, the viability at 10 µM (HeLa [1]) was 121%, the viability at 100 µM (HeLa [2]) was 86% and the viability at 10 µM (HeLa [3]) was 121%. It also gave a viability at 10 µM (HeLa [4]) of 111%, a viability at 10 µM (HeLa [5]) of 57.6% and a viability at 100 µM (HeLa [6]) of 86%. For the same compound, the viability at 100 µM (HeLa [7]) was 85% and the viability at 100 µM (HeLa [8]) was 57.6%.
In the case of OC[C@H]1O[C@@H]2O[C@H]3O[C@H](COc4c(F)c(F)c(-c5c6ccc([nH]6)c(-c6c(F)c(F)c(F)c(F)c6F)c6nc(c(-c7c(F)c(F)c(F)c(F)c7F)c7ccc([nH]7)c7ccc5[nH]7)C=C6)c(F)c4F)[C@@H](O[C@H]4[C@H](O)[C@@H](O)[C@@H](O[C@H]5[C@H](O)[C@@H](O)[C@@H](O[C@H]6[C@H](O)[C@@H](O)[C@@H](O[C@H]7[C@@H](O)[C@@H](O)[C@@H](O[C@H]8[C@H](O)[C@@H](O)[C@@H](O[C@H]1[C@H](O)[C@H]2O)O[C@@H]8CO)O[C@@H]7CO)O[C@@H]6CO)O[C@@H]5CO)O[C@@H]4CO)[C@H](O)[C@H]3O, the viability at 0.1 µM (HeLa [9]) is reported as 113%, the viability at 10 µM (HeLa [1]) is reported as 162% and the viability at 0.1 µM (HeLa [10]) is reported as 92%. It also gave a viability at 0.1 µM (HeLa [11]) of 80.2%, a viability at 0.1 µM (HeLa [12]) of 90.1% and a viability at 10 µM (HeLa [13]) of 93.6%. The viability at 10 µM (HeLa [3]) was 95.6%, the viability at 10 µM (HeLa [4]) was 81.6% and the viability at 10 µM (HeLa [5]) was 81.6%. The inhibition at 10 µM (HeLa [14]) was 20%, the Activity (HeLa [15]) was 22% and the Drug uptake (HeLa [16]) was “Active”. The Drug uptake (HeLa [17]) was “Active”, the Activity (HeLa [18]) was “Active” and the Activity (HeLa [19]) was “Active”.
Fc1c(F)c(F)c(-c2c3nc(c(-c4c(F)c(F)c(F)c(F)c4F)c4ccc([nH]4)c4ccc([nH]4)c(-c4c(F)c(F)c(F)c(F)c4F)c4ccc2[nH]4)C=C3)c(F)c1F was tested, and the viability at 10 µM (HeLa [1]) was 108%, the viability at 100 µM (HeLa [2]) was 117% and the viability at 10 µM (HeLa [13]) was 104%. It also gave a viability at 10 µM (HeLa [3]) of 80.9%, a viability at 10 µM (HeLa [4]) of 44.5% and a viability at 10 µM (HeLa [5]) of 38.5%. For the same compound, the Activity (HeLa [20]) was 70%, the Drug uptake (HeLa [21]) was “Active” and the Drug uptake (HeLa [22]) was “Active”. The Drug uptake (HeLa [23]) was “Active”, the Drug uptake (HeLa [24]) was “Active” and the Drug uptake (HeLa [25]) was “Active”. For the same compound, the Activity (HeLa [26]) was “Active” and the Activity (HeLa [27]) was “Active”.
